Laboratory results as given in patent US7728002B2, “Use of pyrrolopyridine compounds for activating PPAR receptors and treatment of conditions involving such receptors” (Laboratoires Fournier S.A., priority 2005, dated 2010).

What was measured:
db/db mice = db/db mice model: serum glucose, triglycerides, cholesterol; format: in vivo; conditions: serum 4 hours after final gavage
Protocol: The test protocol is as follows:
Homozygous male C57BL/Ks-db mice (db/db mice), 11-13 weeks old at the start of the studies, are divided into groups of 9-10 animals. The products are administered orally, once a day for 5 days. A group of mice receives the vehicle alone (methylcellulose solution at 0.5% or 1%). A blood sample is taken from the retro-orbital sinus before treatment and 4 hours after the final gavage. After centrifugation, the serum is collected and the levels of cholesterol, triglycerides and glucose are measured using a multiparameter analyzer with commercial products. The results are expressed as a percentage of variation on the final day relative to the control group.

[1] = system: cells of murine muscle origin C2C12; experiment: β-oxidation of 14C-oleate on C2C12 cells differentiated as myotubes; format: cell-based; conditions: 10 μM, 48 hours incubation
Protocol: A second series of tests was performed with the compounds according to the invention, with the aim of confirming the activity deduced from their affinity for the receptors mentioned previously. This test consists in measuring the β-oxidation on cells of human hepatic origin HuH7 and cells of murine muscle origin C2C12 after differentiation as myotubes. The cells are inoculated in Petri dishes comprising a central well. The products are added to the culture medium and incubated for 48 hours at different concentrations. After incubation for 22 hours, ^14C-radiolabeled oleate (oleate 1-C14) is added to the culture medium. The β-oxidation reaction is stopped two hours later by adding 40% perchloric acid. The CO2 released during the oxidation of the oleate is trapped with KOH solution and then counted. Each test is performed three times. The results are expressed as a percentage of variation relative to the control dishes (dishes without compounds). According to this test, the compounds according to the invention increase the β-oxidation by up to +145% at a concentration of 10 μM on HuH7 cells.

[2] = 10 mg/kg orally once a day for 5 days
[3] = 3 mg/kg orally once a day for 5 days
[4] = 100 mg/kg orally once a day for 5 days

Structure (SMILES)	Cholesterol, percentage of variation relative to the control group (db/db mice; [2])	Glucose, percentage of variation relative to the control group (db/db mice; [2]) [%]	Triglycerides, percentage of variation relative to the control group (db/db mice; [2]) [%]	also measured
O=C(O)CCCc1cc2nc(C(F)(F)F)ccc2n1S(=O)(=O)c1ccccc1 [Example 20, 1-(Phenylsulfonyl)-5-(trifluoromethyl)-1H-pyrrolo[3,2-b]pyridine-2-butanoic acid]	+13%	−72	−65	–
CN(CCOc1ccc(CC2SC(=O)NC2=O)cc1)c1ccccn1 (stereo not shown) [Rosiglitazone, rosiglitazone, reference compound]	–	–	–	Cholesterol, percentage of variation relative to the control group (db/db mice; [3]): −30%; Glucose, percentage of variation relative to the control group (db/db mice; [3]): −41%; Triglycerides, percentage of variation relative to the control group (db/db mice; [3]): −52%
Cc1cc(C)cc(S(=O)(=O)n2c(CCCCC(=O)O)cc3nc(Cl)ccc32)c1 [Ex. 259, 5-Chloro-1-[(3,5-dimethylphenyl)sulfonyl]-1H-pyrrolo[3,2-b]pyridine-2-pentanoic acid]	+32%	−51	−16	–
O=C(O)CCCc1cc2nc(Cl)ccc2n1S(=O)(=O)c1ccc(-c2ccncc2)cc1 [Ex. 293, 5-Chloro-1-[[4-(4-pyridyl)phenyl]sulfonyl]-1H-pyrrolo[3,2-b]pyridine-2-butanoic acid]	+16%	−24	−15	–
O=C(O)CCCc1cc2nc(Cl)ccc2n1S(=O)(=O)c1ccc2ncsc2c1 [Example 4, 1-(6-Benzothiazolylsulfonyl)-5-chloro-1H-pyrrolo[3,2-b]pyridine-2-butanoic acid]	+4%	−57	−45	–
O=C(O)CCc1cc2nc(Cl)ccc2n1S(=O)(=O)c1ccccc1 [Example 2, 5-Chloro-1-(phenylsulfonyl)-1H-pyrrolo[3,2-b]pyridine-2-propanoic acid]	+41%	−36	−32	–
O=C(O)CCCc1cc2nc(Cl)ccc2n1S(=O)(=O)c1ccccc1 [Example 10, 5-Chloro-1-(phenylsulfonyl)-1H-pyrrolo[3,2-b]pyridine-2-butanoic acid]	–	–	–	increase of β-oxidation, percentage of variation relative to control dishes [1]: 70%
CC(C)OC(=O)C(C)(C)Oc1ccc(C(=O)c2ccc(Cl)cc2)cc1 [Fenofibrate, fenofibrate, reference compound]	–	–	–	Cholesterol, percentage of variation relative to the control group (db/db mice; [4]): +32%; Glucose, percentage of variation relative to the control group (db/db mice; [4]): −9%; Triglycerides, percentage of variation relative to the control group (db/db mice; [4]): −7%
